The term melting point denotes the temperature of the solid-liquid transition. Broadly, the IC50 is the concentration needed to halve the response being measured.

In paper PMC11171218, “N-Benzylated 5-Hydroxybenzothiophene-2-carboxamides as Multi-Targeted Clk/Dyrk Inhibitors and Potential Anticancer Agents” (Cancers, 2024) one finds inhibition, melting point and IC50 data, which are given here for 19 molecules.

Data set [1] addresses Dyrk1B (Homo sapiens, UniProt Q9Y463). The experiment in a line: Z'-LYTE kinase inhibition assay, Dyrk1B. Particulars: for inhibition at 1 µM: read-out: Dyrk1B % Inh. At 1 µM; for IC50: ATP conc. equivalent to Km. The data set is classed as biochemical. The text has this:
(§1) 3. Experimental procedure for protein kinases and inhibition assays.
(§2) 3.1 The Z ́ -LYTE biochemical assay for screening and IC 50 determination for Clk1, Dyrk1A, Dyrk1B, Clk2 and Clk3 kinases.
(§3) The assay employs a fluorescence-based, coupled-enzyme format and is based on the differential sensitivity of phosphorylated and non-phosphorylated peptides to proteolytic cleavage. The peptide substrate is labeled with two fluorophores-one at each end-that make up a FRET pair. In the primary reaction, the kinase transfers the gamma-phosphate of ATP to a single tyrosine, serine, or threonine residue in a synthetic FRET-peptide. In the secondary reaction, a site-specific protease recognizes and cleaves non-phosphorylated FRET-peptides. Phosphorylation of FRET-peptides suppresses cleavage by the Development Reagent. Cleavage disrupts FRET between the donor (i.e., coumarin) and acceptor (i.e., fluorescein) fluorophores on the FRET-peptide, whereas uncleaved, phosphorylated FRET-peptides maintain FRET. A ratiometric method, which calculates the ratio (the Emission Ratio) of donor emission to acceptor emission after excitation of the donor fluorophore at 400 nm, is used to quantitate reaction progress. Both cleaved and uncleaved FRET-peptides contribute to the fluorescence signals and therefore to the Emission Ratio. The extent of phosphorylation of the FRET-peptide can be calculated from the Emission Ratio. The Emission Ratio will remain low if the FRET-peptide is phosphorylated (i.e., no kinase inhibition) and will be high if the FRET-peptide is non-phosphorylated (i.e., kinase inhibition).
(§4) The IC 50 values were determined for compounds displaying significant % inhibition in the screening step. IC 50 determination was done through testing at a range of concentrations with two […]
(§5) two independent experiments. […]
3.1.3 Dyrk1B kinase assay specific conditions:
The 2X Dyrk1B / Ser/Thr 18 mixture is prepared in 50 mM HEPES pH 6.5, 0.01% BRIJ-35, 10 […]
mM MgCl2, 1 mM EGTA, 0.02% NaN3.
(§6) Development Reagent A is added. […]
(§7) MgCl2, 1 mM EGTA, 0.02% NaN3. […]

Data set [2] has as its target Dyrk1A (Homo sapiens, UniProt Q13627). The experiment in a line: Z'-LYTE kinase inhibition assay, Dyrk1A. In kind it is biochemical. The note with it: for inhibition at 1 µM: read-out: Dyrk1A % Inh. At 1 µM; for IC50: ATP conc. equivalent to Km.
Source text: as §1, §2, §3, §4, §5
3.1.2 Dyrk1A kinase assay specific conditions:
The 2x Dyrk1A / Ser/Thr 18 mixture is prepared in 50 mM HEPES pH 7.5, 0.01% BRIJ-35, 10 […]
2 µM Ser/Thr 18 in 50 mM HEPES pH 7.5, 0.01% BRIJ-35, 10 mM MgCl 2, 1 mM EGTA. […]
as §6, §7

Data set [3] deals with Clk1 (Homo sapiens, UniProt P49759). The experiment in a line: Z'-LYTE kinase inhibition assay, Clk1. The data set is classed as biochemical. The note with it: for inhibition at 1 µM: read-out: Clk1 % Inh. At 1 µM; for IC50: ATP conc. equivalent to Km.
Sequence of Clk1 (P49759 whole entry): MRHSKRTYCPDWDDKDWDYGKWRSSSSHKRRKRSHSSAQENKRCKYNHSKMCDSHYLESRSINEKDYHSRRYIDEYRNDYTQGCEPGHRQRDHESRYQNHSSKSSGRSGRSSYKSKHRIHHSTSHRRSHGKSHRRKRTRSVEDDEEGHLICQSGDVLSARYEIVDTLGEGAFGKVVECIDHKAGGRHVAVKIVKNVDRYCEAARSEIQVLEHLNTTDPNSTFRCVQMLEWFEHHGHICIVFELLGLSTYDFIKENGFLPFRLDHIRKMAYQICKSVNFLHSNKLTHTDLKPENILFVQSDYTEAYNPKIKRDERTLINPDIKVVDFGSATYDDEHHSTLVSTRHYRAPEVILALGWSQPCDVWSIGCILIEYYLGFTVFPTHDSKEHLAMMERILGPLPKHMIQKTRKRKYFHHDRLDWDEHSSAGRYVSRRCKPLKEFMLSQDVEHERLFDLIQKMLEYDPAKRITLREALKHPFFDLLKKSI
Source text: as §1, §2, §3, §4
two independent experiments.
3.1.1 Clk1 kinase assay specific conditions:
The 2x Clk1 / Ser/Thr 09 mixture is prepared in 50 mM HEPES pH 7.5, 0.01% BRIJ-35, 10 mM MgCl 2, 1 mM EGTA. The final 10 μL kinase reaction consists of 30 - 120 ng Clk1 and 2 μM Ser/Thr 09 in 50 mM HEPES pH 7.5, 0.01% BRIJ-35, 10 mM MgCl 2, 1 mM EGTA. After the 1 h

Sequence of Dyrk1B (Q9Y463 whole entry): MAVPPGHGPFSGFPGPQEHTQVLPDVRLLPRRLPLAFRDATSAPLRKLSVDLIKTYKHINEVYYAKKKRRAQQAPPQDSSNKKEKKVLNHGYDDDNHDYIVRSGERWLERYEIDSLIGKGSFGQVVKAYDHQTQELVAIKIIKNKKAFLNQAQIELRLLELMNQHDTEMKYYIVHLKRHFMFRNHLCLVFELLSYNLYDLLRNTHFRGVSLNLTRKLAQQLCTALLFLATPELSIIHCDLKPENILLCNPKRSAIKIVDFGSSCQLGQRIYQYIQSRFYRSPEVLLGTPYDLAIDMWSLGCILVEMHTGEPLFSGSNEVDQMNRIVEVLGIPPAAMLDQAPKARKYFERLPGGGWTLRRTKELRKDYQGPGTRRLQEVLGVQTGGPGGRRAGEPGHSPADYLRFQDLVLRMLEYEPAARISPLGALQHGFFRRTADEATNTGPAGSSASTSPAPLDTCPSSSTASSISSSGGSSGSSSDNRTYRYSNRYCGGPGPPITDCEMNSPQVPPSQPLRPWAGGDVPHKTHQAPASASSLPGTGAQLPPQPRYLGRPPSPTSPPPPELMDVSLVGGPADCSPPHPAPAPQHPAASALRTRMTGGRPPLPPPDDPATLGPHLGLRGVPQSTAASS

`Cc1ccc(CNC(=O)c2cc3cc(O)ccc3s2)cc1` [Compound 10, 5-Hydroxy-N-(4-methylbenzyl)benzo[b]thiophene-2-carboxamide] yielded a melting point of 186.6 to 187.6 °C. For the same molecule, the inhibition at 1 µM in data set [1] was 0%. Besides, the inhibition at 1 µM in data set [2] came out at 8%. In addition, in data set [3], the inhibition at 1 µM was 30%.
On to `Cc1ccccc1CNC(=O)c1cc2cc(O)ccc2s1` [Compound 8, 5-Hydroxy-N-(2-methylbenzyl)benzo[b]thiophene-2-carboxamide], for which the melting point fell in the range of 159.1 to 161.2 °C. For the same molecule, in data set [1], the inhibition at 1 µM came to 48%. Also, in data set [2], the IC50 is 853 nM and the inhibition at 1 µM was determined as 61%. Also, in data set [3], the IC50 was determined as 594 nM and the inhibition at 1 µM was found to be 63%.
In turn, `O=C(NCc1cccnc1)c1cc2cc(O)ccc2s1` [Compound 26, 5-Hydroxy-N-(pyridin-3-ylmethyl)benzo[b]thiophene-2-carboxamide] had a melting point of 198 to 200.8 °C. Besides, the inhibition at 1 µM in data set [1] turned out to be 39%. Moreover, in data set [2], the inhibition at 1 µM came to 34%. Further, in data set [3], the inhibition at 1 µM stood at 47%.
`O=C(NCCc1c[nH]c2ccccc12)c1cc2cc(O)ccc2s1` [Compound 30, N-(2-(1H-Indol-3-yl)ethyl)-5-hydroxybenzo[b]thiophene-2-carboxamide] gave a melting point of 211.4 to 213 °C. Besides, the inhibition at 1 µM in data set [1] was determined as 40%. In data set [2], the inhibition at 1 µM is 20%. Moreover, in data set [3], the IC50 came out at 350 nM and the inhibition at 1 µM is 74%.
Take `O=C(NCc1ccco1)c1cc2cc(O)ccc2s1` [Compound 28, N-(Furan-2-Ylmethyl)-5-hydroxybenzo[b]thiophene-2-carboxamide]: the melting point lay in the range of 99.2 to 101.6 °C. Besides, in data set [1], the inhibition at 1 µM amounted to 52%. Further, in data set [2], the IC50 came out at 779 nM and the inhibition at 1 µM was found to be 66%. In data set [3], the half-inhibitory concentration (IC50) worked out at 585 nM and the inhibition at 1 µM was found to be 61%.
`O=C(NCc1ccc(Cl)cc1)c1cc2cc(O)ccc2s1` [Compound 4, N-(4-Chlorobenzyl)-5-hydroxybenzo[b]thiophene-2-carboxamide]: the melting point is 182 to 183.7 °C. For the same molecule, the inhibition at 1 µM in data set [1] turned out to be 0%. Further, in data set [2], the inhibition at 1 µM was determined as 7%. Also, the inhibition at 1 µM in data set [3] came to 40%.
In the same order, the values of `O=C(NCc1cc(C(F)(F)F)cc(C(F)(F)F)c1)c1cc2cc(O)ccc2s1` [Compound 18, N-(3,5-Bis(trifluoromethyl)benzyl)-5-hydroxybenzo[b]thiophene-2-carboxamide] are 199 to 201 °C, 0%, 8% and 26%.
In the case of `O=C(NCc1ccc(F)cc1F)c1cc2cc(O)ccc2s1` [Compound 16, N-(2,4-Difluorobenzyl)-5-hydroxybenzo[b]thiophene-2-carboxamide], the inhibition at 1 µM stood at 53% in data set [1], 40% in data set [2] and 50% in data set [3].
`COc1ccc(CNC(=O)c2cc3cc(O)ccc3s2)cc1OC` [Compound 22, N-(3,4-Dimethoxybenzyl)-5-hydroxybenzo[b]thiophene-2-carboxamide] had a melting point of 188.3 to 190.3 °C. In addition, the inhibition at 1 µM in data set [1] came out at 16%. Further, the inhibition at 1 µM in data set [2] was 8%. Besides, the inhibition at 1 µM in data set [3] amounted to 18%.
`O=C(NCc1ccccc1F)c1cc2cc(O)ccc2s1` [Compound 5, N-(2-Fluorobenzyl)-5-hydroxybenzo[b]thiophene-2-carboxamide]: the melting point was in the range of 199.8 to 201.7 °C. In data set [1], the 50% inhibitory concentration (IC50) turned out to be 722 nM and the inhibition at 1 µM turned out to be 62%. Besides, in data set [2], the inhibition at 1 µM was determined as 48%. Besides, in data set [3], the IC50 was 778 nM and the inhibition at 1 µM came to 63%.
Take `O=C(NCc1ccccc1Cl)c1cc2cc(O)ccc2s1` [Compound 2, N-(2-Chlorobenzyl)-5-hydroxybenzo[b]thiophene-2-carboxamide]: the melting point was 140.2 to 142 °C. Further, in data set [1], the inhibition at 1 µM amounted to 46%. Further, in data set [2], the 50% inhibitory concentration (IC50) stood at 700 nM and the inhibition at 1 µM was 61%. In addition, in data set [3], the concentration for half-maximal inhibition (IC50) came out at 769 nM and the inhibition at 1 µM was 61%.
In the case of `O=C(NCc1ccc(F)cc1)c1cc2cc(O)ccc2s1` [Compound 7, N-(4-Fluorobenzyl)-5-hydroxybenzo[b]thiophene-2-carboxamide], the melting point lay within 195 to 197.2 °C. The inhibition at 1 µM in data set [1] came out at 38%. Also, the inhibition at 1 µM in data set [2] came out at 26%. The inhibition at 1 µM in data set [3] is 50%.
As for `O=C(NCc1cccs1)c1cc2cc(O)ccc2s1` [Compound 27, 5-Hydroxy-N-(thiophen-2-ylmethyl)benzo[b]thiophene-2-carboxamide], the melting point is 139.6 to 141.4 °C. Moreover, in data set [1], the half-inhibitory concentration (IC50) amounted to 703 nM and the inhibition at 1 µM came to 61%. Besides, the inhibition at 1 µM in data set [2] turned out to be 53%. Besides, in data set [3], the IC50 was 705 nM and the inhibition at 1 µM came to 60%.
For `Cc1cc(C)cc(CNC(=O)c2cc3cc(O)ccc3s2)c1` [Compound 19, N-(3,5-Dimethylbenzyl)-5-hydroxybenzo[b]thiophene-2-carboxamide], the melting point was 140.2 to 141.8 °C. In data set [1], the inhibition at 1 µM came to 0%. The inhibition at 1 µM in data set [2] amounted to 22%. In addition, the inhibition at 1 µM in data set [3] was found to be 53%.
With `COc1ccc(CNC(=O)c2cc3cc(O)ccc3s2)c(OC)c1` [Compound 21, N-(2,4-Dimethoxybenzyl)-5-hydroxybenzo[b]thiophene-2-carboxamide], the melting point lay in the range of 163.3 to 164.5 °C. For the same molecule, the inhibition at 1 µM in data set [1] is 17%. Also, the inhibition at 1 µM in data set [2] is 9%. Moreover, the inhibition at 1 µM in data set [3] came to 43%.
`COc1ccc(CNC(=O)c2cc3cc(O)ccc3s2)cc1` [Compound 13, 5-Hydroxy-N-(4-methoxybenzyl)benzo[b]thiophene-2-carboxamide] showed a melting point of 176.5 to 178 °C. Besides, the inhibition at 1 µM in data set [1] came out at 16%. In data set [2], the inhibition at 1 µM came to 9%. Also, the inhibition at 1 µM in data set [3] worked out at 17%.
In the same order, the values of `COc1cccc(CNC(=O)c2cc3cc(O)ccc3s2)c1OC` [Compound 20, N-(2,3-Dimethoxybenzyl)-5-hydroxybenzo[b]thiophene-2-carboxamide] are 181.1 to 183.3 °C, 19%, 14% and 21%.
Consider `COc1cc(CNC(=O)c2cc3cc(O)ccc3s2)cc(OC)c1` [Compound 23, N-(3,5-Dimethoxybenzyl)-5-hydroxybenzo[b]thiophene-2-carboxamide], for which the inhibition at 1 µM in data set [1] was 22%; in data set [2], 12%; in data set [3], 22%.
As to `O=C(NCc1ccccc1)c1cc2cc(O)ccc2s1` [Compound 1, N-Benzyl-5-hydroxybenzo[b]thiophene-2-carboxamide], the IC50 in data set [1] is 833 nM; in data set [3] it was 740 nM. Besides, the inhibition at 1 µM in data set [1] is 60%; in data set [2], 46%; in data set [3] it was 60%.
